Measurements: ChEMBL document CHEMBL3045830, “Differential effect of triazoles on mycelial growth and disease measurements of Monilinia fructicola isolates with reduced sensitivity to DMI fungicides” (Crop Prot, 2007)
The source made the active and inactive calls. No cut-off for these calls is given here.

Tests used:
Type in all cases: functional, organism-based
Monilinia fructicola [1] = assay: Fungicidal activity against Monilinia fructicola isolate GADL133.04 assessed as reduction in colony diameter after 5 days
Monilinia fructicola [2] = assay: Fungicidal activity against Monilinia fructicola isolate GADL133.04 infected peach fruit assessed as decrease in brown rot disease incidence at 0.135 ml/l applied 24 hr prior to inoculation after 5 days relative to untreated-control
Monilinia fructicola [3] = assay: Fungicidal activity against Monilinia fructicola isolate SCDL71.01 infected peach fruit assessed as decrease in sporulation area at 0.135 ml/l applied 24 hr after inoculation after 5 days relative to untreated-control
Monilinia fructicola [4] = assay: Fungicidal activity against Monilinia fructicola isolate GADL193.04 infected peach fruit assessed as decrease in brown rot disease incidence at 0.135 ml/l applied 24 hr after inoculation after 5 days relative to untreated-control
Monilinia fructicola [5] = assay: Fungicidal activity against Monilinia fructicola isolate GADL133.04 infected peach fruit assessed as decrease in brown rot disease incidence at 0.135 ml/l applied 24 hr after inoculation after 5 days relative to untreated-control
Monilinia fructicola [6] = assay: Fungicidal activity against Monilinia fructicola isolate SCDL71.01 infected peach fruit assessed as decrease in sporulation area at 0.135 ml/l applied 24 hr prior to inoculation after 5 days relative to untreated-control
Monilinia fructicola [7] = assay: Fungicidal activity against Monilinia fructicola isolate SCDL71.01 infected peach fruit assessed as decrease in brown rot disease incidence at 0.135 ml/l applied 24 hr prior to inoculation after 5 days relative to untreated-control
Monilinia fructicola [8] = assay: Fungicidal activity against Monilinia fructicola isolate GADL193.04 infected peach fruit assessed as decrease in brown rot disease incidence at 0.135 ml/l applied 24 hr prior to inoculation after 5 days relative to untreated-control
Monilinia fructicola [9] = assay: Fungicidal activity against Monilinia fructicola isolate GADL193.04 infected peach fruit assessed as decrease in sporulation area at 0.135 ml/l applied 24 hr after inoculation after 5 days relative to untreated-control
Monilinia fructicola [10] = assay: Fungicidal activity against Monilinia fructicola isolate SCDL71.01 infected peach fruit assessed as decrease in brown rot disease incidence at 0.135 ml/l applied 24 hr after inoculation after 5 days relative to untreated-control
Monilinia fructicola [11] = assay: Fungicidal activity against Monilinia fructicola isolate GADL133.04 infected peach fruit assessed as decrease in sporulation area at 0.135 ml/l applied 24 hr prior to inoculation after 5 days relative to untreated-control
Monilinia fructicola [12] = assay: Fungicidal activity against Monilinia fructicola isolate GADL193.04 infected peach fruit assessed as decrease in sporulation area at 0.135 ml/l applied 24 hr prior to inoculation after 5 days relative to untreated-control
Monilinia fructicola [13] = assay: Fungicidal activity against Monilinia fructicola isolate SCDL71.01 assessed as reduction in colony diameter after 5 days
Monilinia fructicola [14] = assay: Fungicidal activity against Monilinia fructicola isolate GADL193.04 assessed as reduction in colony diameter after 5 days
Monilinia fructicola [15] = assay: Fungicidal activity against Monilinia fructicola isolate GADL133.04 infected peach fruit assessed as decrease in sporulation area at 0.135 ml/l applied 24 hr after inoculation after 5 days relative to untreated-control
Monilinia fructicola [16] = assay: Fungicidal activity against Monilinia fructicola isolate GADL193.04 infected peach fruit assessed as decrease in sporulation area at 0.131 ml/l applied 24 hr prior to inoculation after 5 days relative to untreated-control
Monilinia fructicola [17] = assay: Fungicidal activity against Monilinia fructicola isolate SCDL71.01 infected peach fruit assessed as decrease in sporulation area at 0.131 ml/l applied 24 hr after inoculation after 5 days relative to untreated-control
Monilinia fructicola [18] = assay: Fungicidal activity against Monilinia fructicola isolate GADL193.04 infected peach fruit assessed as decrease in sporulation area at 0.131 ml/l applied 24 hr after inoculation after 5 days relative to untreated-control
Monilinia fructicola [19] = assay: Fungicidal activity against Monilinia fructicola isolate GADL133.04 infected peach fruit assessed as decrease in sporulation area at 0.131 ml/l applied 24 hr prior to inoculation after 5 days relative to untreated-control
Monilinia fructicola [20] = assay: Fungicidal activity against Monilinia fructicola isolate GADL133.04 infected peach fruit assessed as decrease in brown rot disease incidence at 0.131 ml/l applied 24 hr prior to inoculation after 5 days relative to untreated-control
Monilinia fructicola [21] = assay: Fungicidal activity against Monilinia fructicola isolate GADL193.04 infected peach fruit assessed as decrease in brown rot disease incidence at 0.131 ml/l applied 24 hr after inoculation after 5 days relative to untreated-control
Monilinia fructicola [22] = assay: Fungicidal activity against Monilinia fructicola isolate SCDL71.01 infected peach fruit assessed as decrease in brown rot disease incidence at 0.131 ml/l applied 24 hr after inoculation after 5 days relative to untreated-control
Monilinia fructicola [23] = assay: Fungicidal activity against Monilinia fructicola isolate SCDL71.01 infected peach fruit assessed as decrease in sporulation area at 0.131 ml/l applied 24 hr prior to inoculation after 5 days relative to untreated-control
Monilinia fructicola [24] = assay: Fungicidal activity against Monilinia fructicola isolate GADL133.04 infected peach fruit assessed as decrease in brown rot disease incidence at 0.131 ml/l applied 24 hr after inoculation after 5 days relative to untreated-control
Monilinia fructicola [25] = assay: Fungicidal activity against Monilinia fructicola isolate SCDL71.01 infected peach fruit assessed as decrease in brown rot disease incidence at 0.131 ml/l applied 24 hr prior to inoculation after 5 days relative to untreated-control
Monilinia fructicola [26] = assay: Fungicidal activity against Monilinia fructicola isolate GADL193.04 infected peach fruit assessed as decrease in brown rot disease incidence at 0.131 ml/l applied 24 hr prior to inoculation after 5 days relative to untreated-control
Monilinia fructicola [27] = assay: Fungicidal activity against Monilinia fructicola isolate GADL133.04 infected peach fruit assessed as decrease in sporulation area at 0.131 ml/l applied 24 hr after inoculation after 5 days relative to untreated-control
Monilinia fructicola [28] = assay: Fungicidal activity against Monilinia fructicola isolate SCDL71.01 infected peach fruit assessed as decrease in sporulation area at 0.112 ml/l applied 24 hr after inoculation after 5 days relative to untreated-control
Monilinia fructicola [29] = assay: Fungicidal activity against Monilinia fructicola isolate GADL193.04 infected peach fruit assessed as decrease in brown rot disease incidence at 0.112 ml/l applied 24 hr after inoculation after 5 days relative to untreated-control
Monilinia fructicola [30] = assay: Fungicidal activity against Monilinia fructicola isolate GADL133.04 infected peach fruit assessed as decrease in sporulation area at 0.112 ml/l applied 24 hr prior to inoculation after 5 days relative to untreated-control
Monilinia fructicola [31] = assay: Fungicidal activity against Monilinia fructicola isolate GADL193.04 infected peach fruit assessed as decrease in brown rot disease incidence at 0.112 ml/l applied 24 hr prior to inoculation after 5 days relative to untreated-control
Monilinia fructicola [32] = assay: Fungicidal activity against Monilinia fructicola isolate GADL133.04 infected peach fruit assessed as decrease in sporulation area at 0.112 ml/l applied 24 hr after inoculation after 5 days relative to untreated-control
Monilinia fructicola [33] = assay: Fungicidal activity against Monilinia fructicola isolate SCDL71.01 infected peach fruit assessed as decrease in sporulation area at 0.112 ml/l applied 24 hr prior to inoculation after 5 days relative to untreated-control
Monilinia fructicola [34] = assay: Fungicidal activity against Monilinia fructicola isolate GADL193.04 infected peach fruit assessed as decrease in sporulation area at 0.112 ml/l applied 24 hr after inoculation after 5 days relative to untreated-control
Monilinia fructicola [35] = assay: Fungicidal activity against Monilinia fructicola isolate SCDL71.01 infected peach fruit assessed as decrease in brown rot disease incidence at 0.112 ml/l applied 24 hr prior to inoculation after 5 days relative to untreated-control
Monilinia fructicola [36] = assay: Fungicidal activity against Monilinia fructicola isolate GADL193.04 infected peach fruit assessed as decrease in sporulation area at 0.112 ml/l applied 24 hr prior to inoculation after 5 days relative to untreated-control
Monilinia fructicola [37] = assay: Fungicidal activity against Monilinia fructicola isolate GADL133.04 infected peach fruit assessed as decrease in brown rot disease incidence at 0.112 ml/l applied 24 hr prior to inoculation after 5 days relative to untreated-control
Monilinia fructicola [38] = assay: Fungicidal activity against Monilinia fructicola isolate SCDL71.01 infected peach fruit assessed as decrease in brown rot disease incidence at 0.112 ml/l applied 24 hr after inoculation after 5 days relative to untreated-control
Monilinia fructicola [39] = assay: Fungicidal activity against Monilinia fructicola isolate GADL133.04 infected peach fruit assessed as decrease in brown rot disease incidence at 0.112 ml/l applied 24 hr after inoculation after 5 days relative to untreated-control

With CC(C)(C)C(O)(CCc1ccc(Cl)cc1)Cn1cncn1 (stereo not given) [TEBUCONAZOLE] the Activity (Monilinia fructicola [1]) was “Active”, the Activity (Monilinia fructicola [2]) was “Active” and the Activity (Monilinia fructicola [3]) was “Active”. The Activity (Monilinia fructicola [4]) was “Active”, the Activity (Monilinia fructicola [5]) was “Active” and the Activity (Monilinia fructicola [6]) was “Active”. The Activity (Monilinia fructicola [7]) was “Active”, the Activity (Monilinia fructicola [8]) was “Active” and the Activity (Monilinia fructicola [9]) was “Active”. The Activity (Monilinia fructicola [10]) was “Active”, the Activity (Monilinia fructicola [11]) was “Active” and the Activity (Monilinia fructicola [12]) was “Active”. The EC50 (Monilinia fructicola [13]) was 0.018 uL/ml, the Activity (Monilinia fructicola [14]) was “Active” and the Activity (Monilinia fructicola [15]) was “Active”.
In the case of CCCC1COC(Cn2cncn2)(c2ccc(Cl)cc2Cl)O1 (stereo not given) [PROPICONAZOLE], the Activity (Monilinia fructicola [16]) is reported as “Active”, the Activity (Monilinia fructicola [17]) is reported as “Active” and the Activity (Monilinia fructicola [18]) is reported as “Active”. For the same compound, the Activity (Monilinia fructicola [19]) was “Active”, the Activity (Monilinia fructicola [20]) was “Active” and the Activity (Monilinia fructicola [1]) was “Active”. The Activity (Monilinia fructicola [21]) was “Active”, the Activity (Monilinia fructicola [22]) was “Active” and the Activity (Monilinia fructicola [23]) was “Active”. The Activity (Monilinia fructicola [24]) was “Active”, the Activity (Monilinia fructicola [25]) was “Active” and the Activity (Monilinia fructicola [26]) was “Active”. For the same compound, the EC50 (Monilinia fructicola [13]) was 0.023 uL/ml, the Activity (Monilinia fructicola [14]) was “Active” and the Activity (Monilinia fructicola [27]) was “Active”.
For N#CC(CCc1ccc(Cl)cc1)(Cn1cncn1)c1ccccc1 (stereo not given) [FENBUCONAZOLE], the Activity (Monilinia fructicola [28]) was “Active”, the Activity (Monilinia fructicola [29]) was “Active” and the Activity (Monilinia fructicola [30]) was “Active”. For the same compound, the Activity (Monilinia fructicola [31]) was “Active”, the Activity (Monilinia fructicola [1]) was “Active” and the Activity (Monilinia fructicola [32]) was “Active”. The Activity (Monilinia fructicola [33]) was “Active”, the Activity (Monilinia fructicola [34]) was “Active” and the Activity (Monilinia fructicola [35]) was “Active”. For the same compound, the Activity (Monilinia fructicola [36]) was “Active”, the EC50 (Monilinia fructicola [13]) was 0.019 uL/ml and the Activity (Monilinia fructicola [14]) was “Active”. The Activity (Monilinia fructicola [37]) was “Active”, the Activity (Monilinia fructicola [38]) was “Active” and the Activity (Monilinia fructicola [39]) was “Active”.
